Measured values: patent US8153385B2, “Target protein and target gene in drug designing and screening method” (Reverse Proteomics Research Institute Co., Ltd., priority 2004, dated 2012)

Target: T1, FLJ13397 clone-derived protein (CARP) (Homo sapiens, UniProt Q9H8M7)
T1 construct: A human full-length cDNA clone was expressed as a protein with an N-terminal His tag; His tag (pDEST17 Gateway vector) (N); made in house; host or cells: Escherichia coli BL21star(DE3)pLysS
T1 sequence (Q9H8M7 1-445): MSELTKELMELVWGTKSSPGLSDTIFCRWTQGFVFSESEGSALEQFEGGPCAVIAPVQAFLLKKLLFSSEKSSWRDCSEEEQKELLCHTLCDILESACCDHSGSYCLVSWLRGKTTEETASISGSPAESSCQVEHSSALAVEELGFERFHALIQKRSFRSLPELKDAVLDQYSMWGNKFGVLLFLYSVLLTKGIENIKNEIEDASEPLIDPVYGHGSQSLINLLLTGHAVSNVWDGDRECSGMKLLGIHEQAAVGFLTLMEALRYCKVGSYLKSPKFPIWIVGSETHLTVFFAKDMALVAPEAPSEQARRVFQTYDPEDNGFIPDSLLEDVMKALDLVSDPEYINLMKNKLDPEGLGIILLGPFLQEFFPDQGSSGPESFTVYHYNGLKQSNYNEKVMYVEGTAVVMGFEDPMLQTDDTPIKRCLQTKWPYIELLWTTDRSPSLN
Assay: SEC/MS (size exclusion chromatography / mass analysis) interaction analysis between FLJ13397 clone-derived protein and compounds
Format: binding

With `COC(=O)Nc1nc2ccc(C(=O)c3cccs3)cc2[nH]1` [Nocodazole] the “spectrum intensity of the extracted mass range (compound in SEC spin column filtrate)” value (“spectrum intensity” below) (compound 1 μM, protein 0 μM (protein-free reference)) was 8235638, the “spectrum intensity” value (compound 1 μM, protein 23.75 μM) was 5202611 and the “spectrum intensity” value (compound 1 μM, protein 47.5 μM) was 3977550. The “spectrum intensity” value (compound 10 μM, protein 0 μM (protein-free reference)) was 4879694, the “spectrum intensity” value (compound 10 μM, protein 23.75 μM) was 6159010 and the “spectrum intensity” value (compound 10 μM, protein 47.5 μM) was 9316181. The “spectrum intensity” value (compound 100 μM, protein 0 μM (protein-free reference)) was 6162151, the “spectrum intensity” value (compound 100 μM, protein 23.75 μM) was 33749400 and the “spectrum intensity” value (compound 100 μM, protein 47.5 μM) was 37180973. For the same compound, the “spectrum intensity” value (compound 250 μM, protein 0 μM (protein-free reference)) was 9512433, the “spectrum intensity” value (compound 250 μM, protein 23.75 μM) was 131043824 and the “spectrum intensity” value (compound 250 μM, protein 47.5 μM) was 227971112.
